Counter-ions that a name gives are not always drawn.

This is an account of results in patent US11174268B2, “Benzenesulfonamide compouds and their use as therapeutic agents” (Xenon Pharmaceuticals Inc., priority 2016, dated 2021).

For data set [1], the target named is NaV1.1 (Homo sapiens (Human), UniProt P35498). The data set can be described thus: Sodium Influx Assay (Flux), NaV1.1.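 Further: channels co-expressed with human β1 subunit and held open by modulators, cells exposed to compounds for one hour at room temperature, IC50 from percent inhibition of influx.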 Format: cell-based. The conditions noted are these: Trex HEK293 cells, ANG2 dye, inactivated state.
The target of data set [2] is NaV1.5 (Homo sapiens (Human), UniProt Q14524). The data set can be described thus: Sodium Influx Assay (Flux), NaV1.5. The conditions noted are these: read-out: Flux NaV1.5 IC50; Trex HEK293 cells, ANG2 dye, inactivated state.
Data set [3] deals with NaV1.6 (Homo sapiens (Human), UniProt Q9UQD0). Briefly: Sodium Influx Assay (Flux), NaV1.6.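 Further: Tetracycline-induced cells, compounds applied for one hour at room temperature with modulators holding channels open, IC50 from percent inhibition of sodium influx.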 Format: cell-based. The note with it: Trex HEK293 cells, ANG2 dye, inactivated state.

NaV1.5, sequence (Q14524 other isoform, or with tags, fused parts or gaps): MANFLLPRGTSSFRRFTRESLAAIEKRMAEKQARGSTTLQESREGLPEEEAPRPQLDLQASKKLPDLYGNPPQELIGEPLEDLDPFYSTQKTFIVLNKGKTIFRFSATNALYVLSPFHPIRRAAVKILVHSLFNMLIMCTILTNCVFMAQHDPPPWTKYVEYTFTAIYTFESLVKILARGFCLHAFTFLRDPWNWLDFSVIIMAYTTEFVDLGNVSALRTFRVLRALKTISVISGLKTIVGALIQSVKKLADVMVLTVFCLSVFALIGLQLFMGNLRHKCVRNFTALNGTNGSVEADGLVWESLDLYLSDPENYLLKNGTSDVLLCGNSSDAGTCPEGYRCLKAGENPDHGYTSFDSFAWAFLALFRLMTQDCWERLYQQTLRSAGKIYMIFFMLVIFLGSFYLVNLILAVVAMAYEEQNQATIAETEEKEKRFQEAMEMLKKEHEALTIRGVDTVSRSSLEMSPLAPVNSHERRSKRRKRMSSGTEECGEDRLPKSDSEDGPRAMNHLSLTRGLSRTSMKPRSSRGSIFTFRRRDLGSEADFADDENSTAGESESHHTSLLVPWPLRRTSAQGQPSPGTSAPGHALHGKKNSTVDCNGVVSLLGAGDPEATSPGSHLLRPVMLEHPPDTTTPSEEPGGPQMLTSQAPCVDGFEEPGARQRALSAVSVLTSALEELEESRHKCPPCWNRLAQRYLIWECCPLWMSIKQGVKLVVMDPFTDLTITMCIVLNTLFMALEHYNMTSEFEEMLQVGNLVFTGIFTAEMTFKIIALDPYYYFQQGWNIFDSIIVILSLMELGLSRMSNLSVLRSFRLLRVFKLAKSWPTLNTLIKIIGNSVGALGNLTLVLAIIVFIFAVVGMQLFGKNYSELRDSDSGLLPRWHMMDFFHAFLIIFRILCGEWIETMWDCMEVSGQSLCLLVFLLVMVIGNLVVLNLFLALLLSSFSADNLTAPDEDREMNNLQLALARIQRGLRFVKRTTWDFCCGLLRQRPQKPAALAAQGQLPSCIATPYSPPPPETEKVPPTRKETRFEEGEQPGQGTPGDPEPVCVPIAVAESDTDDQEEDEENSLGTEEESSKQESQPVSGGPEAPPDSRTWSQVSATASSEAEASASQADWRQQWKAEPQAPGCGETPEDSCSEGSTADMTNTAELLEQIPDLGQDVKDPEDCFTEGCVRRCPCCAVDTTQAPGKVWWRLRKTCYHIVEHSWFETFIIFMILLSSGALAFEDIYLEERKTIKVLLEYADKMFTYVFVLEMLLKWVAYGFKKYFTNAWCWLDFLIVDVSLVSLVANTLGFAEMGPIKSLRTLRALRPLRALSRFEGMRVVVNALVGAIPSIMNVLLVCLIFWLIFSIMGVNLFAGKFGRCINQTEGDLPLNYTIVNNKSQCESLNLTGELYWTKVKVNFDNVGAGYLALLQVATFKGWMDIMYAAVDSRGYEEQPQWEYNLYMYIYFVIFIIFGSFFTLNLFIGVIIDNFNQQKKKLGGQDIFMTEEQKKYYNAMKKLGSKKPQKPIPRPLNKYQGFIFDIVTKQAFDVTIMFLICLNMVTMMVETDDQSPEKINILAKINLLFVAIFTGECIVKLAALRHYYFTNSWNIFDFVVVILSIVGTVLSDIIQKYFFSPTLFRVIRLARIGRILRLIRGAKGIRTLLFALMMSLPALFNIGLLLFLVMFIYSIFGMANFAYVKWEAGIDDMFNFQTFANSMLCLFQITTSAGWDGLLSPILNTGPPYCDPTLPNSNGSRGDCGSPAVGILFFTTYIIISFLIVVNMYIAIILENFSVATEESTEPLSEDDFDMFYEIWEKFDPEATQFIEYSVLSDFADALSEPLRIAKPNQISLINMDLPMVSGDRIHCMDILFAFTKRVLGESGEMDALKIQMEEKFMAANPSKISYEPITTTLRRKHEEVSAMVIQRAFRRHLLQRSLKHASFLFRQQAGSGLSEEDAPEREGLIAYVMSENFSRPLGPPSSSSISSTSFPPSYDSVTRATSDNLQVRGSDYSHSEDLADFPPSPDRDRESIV

Consider `O=S(=O)(Nc1ccncn1)c1cc(Cl)c(NC2(c3cc(F)ccc3F)CC2)cc1F` [Example 241, 5-chloro-4-((1-(2,5-difluorophenyl)cyclopropyl)amino)-2-fluoro-N-(pyrimidin-4-yl)benzenesulfonamide], for which the IC50 in data set [1] is 26.8 µM; in data set [2] it was 30 µM; in data set [3], 2.36 µM.
On the same counts, the results for `O=S(=O)(Nc1ccncn1)c1cc(Cl)c(NC2(c3ccccc3F)CC2)cc1F` [Example 242, 5-chloro-2-fluoro-4-((1-(2-fluorophenyl)cyclopropyl)amino)-N-(pyrimidin-4-yl)benzenesulfonamide] are 30 µM, 30 µM and 1.95 µM.
On the same counts, the results for `Cc1cc(NS(=O)(=O)c2cc(Cl)c(N[C@@H](C)c3ccccc3Cl)cc2F)ncn1` [Example 244, (S)-5-chloro-4-((1-(2-chlorophenyl)ethyl)amino)-2-fluoro-N-(6-methylpyrimidin-4-yl)benzenesulfonamide] are 30 µM, 22.2 µM and 4.28 µM.
On the same counts, the results for `C[C@H](Nc1cc(F)c(S(=O)(=O)Nc2ccnc(C(F)(F)F)n2)cc1Cl)c1ccccc1Cl` [Example 245, (S)-5-chloro-4-((1-(2-chlorophenyl)ethyl)amino)-2-fluoro-N-(2-(trifluoromethyl)pyrimidin-4-yl)benzenesulfonamide] are 10.5 µM, 6.55 µM and 5.38 µM.
With `COC1CN(Cc2cccc(F)c2CNc2cc(F)c(S(=O)(=O)Nc3cscn3)cc2Cl)C1` [Example 248, 5-chloro-2-fluoro-4-((2-fluoro-6-((3-methoxyazetidin-1-yl)methyl)benzyl)amino)-N-(thiazol-4-yl)benzenesulfonamide 2,2,2-trifluoroacetate], the values for the IC50 in data set [1], in data set [2] and in data set [3] were 21.4 µM, 26.5 µM and 0.431 µM, respectively.
For the molecule `CN(C)Cc1cccc(F)c1CNc1cc(F)c(S(=O)(=O)Nc2cscn2)cc1Cl` [Example 249, 5-chloro-4-((2-((dimethylamino)methyl)-6-fluorobenzyl)amino)-2-fluoro-N-(thiazol-4-yl)benzenesulfonamide 2,2,2-trifluoroacetate], the IC50 in data set [1] is 30 µM; in data set [2] it was 30 µM; in data set [3], 0.163 µM.
Consider `O=S(=O)(Nc1cscn1)c1cc(Cl)c(NCc2c(F)cccc2CN2CCOCC2)cc1F` [Example 250, 5-chloro-2-fluoro-4-((2-fluoro-6-(morpholinomethyl)benzyl)amino)-N-(thiazol-4-yl)benzenesulfonamide], for which the IC50 in data set [1] came out at 23.6 µM; in data set [2] it was 30 µM; in data set [3], 9.06 µM.
Taken in the same sequence, the figures for `O=S(=O)(Nc1cscn1)c1cc(Cl)c(NCc2c(F)cccc2CN2CCC(F)(F)CC2)cc1F` [Example 251, 5-chloro-4-((2-((4,4-difluoropiperidin-1-yl)methyl)-6-fluorobenzyl)amino)-2-fluoro-N-(thiazol-4-yl)benzenesulfonamide] were 8.68 µM, 3.35 µM and 3.71 µM.
Taken in the same sequence, the figures for `O=S(=O)(Nc1cscn1)c1c(F)cc(NCc2c(F)cccc2CN2CC3(CCC3)C2)cc1F` [Example 252, 4-((2-((2-azaspiro[3.3]heptan-2-yl)methyl)-6-fluorobenzyl)amino)-2,6-difluoro-N-(thiazol-4-yl)benzenesulfonamide formate] were 9.96 µM, 12.6 µM and 0.036 µM.
On the same counts, the results for `C[C@H](Nc1cc(F)c(S(=O)(=O)Nc2cscn2)cc1Cl)c1cccc(CN(C)C)c1` [Example 253, (S)-5-chloro-4-((1-(3-((dimethylamino)methyl)phenyl)ethyl)amino)-2-fluoro-N-(thiazol-4-yl)benzenesulfonamide formate] are 20 µM, 13.1 µM and 2.1 µM.
Consider `C[C@@H](Nc1cc(F)c(S(=O)(=O)Nc2cscn2)cc1Cl)c1cccc(CN(C)C)c1` [Example 254, (R)-5-chloro-4-((1-(3-((dimethylamino)methyl)phenyl)ethyl)amino)-2-fluoro-N-(thiazol-4-yl)benzenesulfonamide formate], for which the IC50 in data set [1] came to 14.1 µM; in data set [2] it was 3.62 µM; in data set [3] it was 9.44 µM.
On the same counts, the results for `C[C@H](Nc1cc(F)c(S(=O)(=O)Nc2cscn2)cc1Cl)c1cc(CN2CCCCC2)ccc1F` [Example 256, (S)-5-chloro-2-fluoro-4-((1-(2-fluoro-5-(piperidin-1-ylmethyl)phenyl)ethyl)amino)-N-(thiazol-4-yl)benzenesulfonamide formate] are 8.82 µM, 6.97 µM and 1.22 µM.
`O=S(=O)(Nc1ccon1)c1cc(Cl)c(NCc2ccccc2CN2CCC2)cc1F` [Example 258, 4-((2-(azetidin-1-ylmethyl)benzyl)amino)-5-chloro-2-fluoro-N-(isoxazol-3-yl)benzenesulfonamide]: the IC50 in data set [1] came to 30 µM; in data set [2], 30 µM; in data set [3], 3.69 µM.
Turning to `O=S(=O)(Nc1ccon1)c1c(F)cc(NCc2ccccc2CN2CCC2)cc1F` [Example 259, 4-((2-(azetidin-1-ylmethyl)benzyl)amino)-2,6-difluoro-N-(isoxazol-3-yl)benzenesulfonamide], the IC50 in data set [1] stood at 29.2 µM; in data set [2] it was 30 µM; in data set [3], 1.37 µM.
Taken in the same sequence, the figures for `O=S(=O)(Nc1cccnn1)c1cc(Cl)c(NCc2c(F)cccc2CN2CCC2)cc1F` [Example 260, 4-((2-(azetidin-1-ylmethyl)-6-fluorobenzyl)amino)-5-chloro-2-fluoro-N-(pyridazin-3-yl)benzenesulfonamide] were 30 µM, 30 µM and 1.88 µM.
On the same counts, the results for `O=S(=O)(Nc1cscn1)c1cc(Cl)c(NCc2ccccc2CCN2CCC2)cc1F` [Example 261, 4-((2-(2-(azetidin-1-yl)ethyl)benzyl)amino)-5-chloro-2-fluoro-N-(thiazol-4-yl)benzenesulfonamide formate] are 28.9 µM, 26.3 µM and 0.146 µM.
On to `O=S(=O)(Nc1cscn1)c1cc(Cl)c(NCc2cc(CCN3CCC3)ccc2F)cc1F` [Example 262, 4-((5-(2-(azetidin-1-yl)ethyl)-2-fluorobenzyl)amino)-5-chloro-2-fluoro-N-(thiazol-4-yl)benzenesulfonamide formate], for which the IC50 in data set [1] amounted to 8.29 µM; in data set [2] it was 7.32 µM; in data set [3], 1.42 µM.
Taken in the same sequence, the figures for `O=S(=O)(Nc1cscn1)c1cc(Cl)c(NCc2cc(CCN3CC(F)C3)ccc2F)cc1F` [Example 263, 5-chloro-2-fluoro-4-((2-fluoro-5-(2-(3-fluoroazetidin-1-yl)ethyl)benzyl)amino)-N-(thiazol-4-yl)benzenesulfonamide formate] were 7.71 µM, 4.78 µM and 1.02 µM.
On the same counts, the results for `O=S(=O)(Nc1cscn1)c1cc(Cl)c(N[C@H]2C[C@H](N3CCC3)c3ccccc32)cc1F` [Example 264, 4-(((1S,3S)-3-(azetidin-1-yl)-2,3-dihydro-1H-inden-1-yl)amino)-5-chloro-2-fluoro-N-(thiazol-4-yl)benzenesulfonamide formate] are 30 µM, 30 µM and 30 µM.
On the same counts, the results for `C[C@H](Nc1cc(F)c(S(=O)(=O)Nc2ncc(Cl)s2)cc1Cl)c1ccccc1F` [Example 267, (S)-5-chloro-2-fluoro-4-((1-(2-fluorophenyl)ethyl)amino)-N-(5-chlorothiazol-2-yl)benzenesulfonamide] are 3.58 µM, 6.96 µM and 0.959 µM.
Take `Cc1cc(N[C@@H](C)c2ccccc2F)c(Cl)cc1S(=O)(=O)Nc1nccs1` [Example 269, (S)-5-chloro-4-((1-(2-fluorophenyl)ethyl)amino)-2-methyl-N-(thiazol-2-yl)benzenesulfonamide]: the values for the IC50 in data set [1], in data set [2] and in data set [3] were 2.78 µM, 6.72 µM and 0.584 µM, respectively.
On the same counts, the results for `CN(C)Cc1ccccc1CNc1cc(F)c(S(=O)(=O)Nc2cscn2)c(F)c1` [Example 271, 4-((2-((dimethylamino)methyl)benzyl)amino)-2,6-difluoro-N-(thiazol-4-yl)benzenesulfonamide] are 30 µM, 30 µM and 0.448 µM.
Taken in the same sequence, the figures for `CC[C@H](Nc1cc(F)c(S(=O)(=O)Nc2ccncn2)c(F)c1)c1cc(F)ccc1Cl` [Example 276, (S)-4-((1-(2-chloro-5-fluorophenyl)propyl)amino)-2,6-difluoro-N-(pyrimidin-4-yl)benzenesulfonamide] were 3.6 µM, 24.3 µM and 0.265 µM.
`C[C@@H](c1cccc(F)c1CNc1cc(F)c(S(=O)(=O)Nc2cscn2)c(F)c1)N1CCC1` [Example 278, (S)-4-((2-(1-(azetidin-1-yl)ethyl)-6-fluorobenzyl)amino)-2,6-difluoro-N-(thiazol-4-yl)benzenesulfonamide formate]: the IC50 in data set [1] is 14.2 µM; in data set [2], 30 µM; in data set [3], 0.187 µM.
On the same counts, the results for `C[C@H](c1cccc(F)c1CNc1cc(F)c(S(=O)(=O)Nc2cscn2)c(F)c1)N1CCC1` [Example 279, (R)-4-((2-(1-(azetidin-1-yl)ethyl)-6-fluorobenzyl)amino)-2,6-difluoro-N-(thiazol-4-yl)benzenesulfonamide formate] are 11.2 µM, 30 µM and 0.163 µM.
On the same counts, the results for `COCc1ccc(F)c([C@H](C)Nc2cc(F)c(S(=O)(=O)Nc3cscn3)cc2Cl)c1` [Example 280, (S)-5-chloro-2-fluoro-4-((1-(2-fluoro-5-(methoxymethyl)phenyl)ethyl)amino)-N-(thiazol-4-yl)benzenesulfonamide] are 8.73 µM, 23.9 µM and 1.39 µM.

The term IC50 denotes the midpoint of a concentration-inhibition curve.
